Test: Moisture sorption/desorption analysis
Type: physicochemical
From the text: The profiles show the change in weight of a sample containing Form I as the relative humidity (herein referred to as “RH”) of the environment is changed between 5% and 95% at a 10% RH interval. […] The vapor sorption/desorption profiles indicate that Form I is non-hygroscopic. Moisture sorption/desorption data were collected on a VTI SGA-100 Vapor Sorption Analyzer, calibrated using sodium chloride and polyvinylpyrrolidone as calibration standards. Sorption and desorption data were collected over a range of 5% to 95% relative humidity (RH) at 10% RH interval under a nitrogen purge. Samples were not dried prior to analysis. Equilibrium criteria used for analysis were less than 0.0100% weight change in 5 minutes, with a maximum equilibration time of 3 hours if the weight criterion was not met. Data were not corrected for the initial moisture content of the sample.

C[C@H](c1cc2ccccc2s1)N(O)C(N)=O [Form I, (+)-R-zileuton]
weight change in adsorption profile (RH below 40%, FIG. 3): essentially no weight change
hygroscopicity from vapor sorption/desorption profiles (RH between 5% and 95%): non-hygroscopic
weight gain in adsorption profile (steady gain from RH 40% until RH reaches 95%, 10% RH interval, FIG. 3): approximately 2%

Reference: patent US8003684B2, “Crystal form and pharmaceutical compositions of (+)-R-zileuton” (Cornerstone Therapeutics, Inc., priority 2006, dated 2011)
